From patent US20230310486A1, “CONJUGATED OLIGONUCLEOTIDE COMPOUNDS, METHODS OF MAKING AND USES THEREOF” (E-Therapeutics PLC, priority 2021, published 2023)
In the oligonucleotide strings, read from the 5' end, every base follows the letter of its sugar. An asterisk marks phosphorothioate; unmarked linkages are phosphodiester. Other units and linkages are bracketed, terminal groups are in braces. A string of capitals states the bases alone. {ET-GalNAc-T2CO} = code of the source, not defined here; {NH2C12} = code of the source, not defined here; {NHC6} = code of the source, not defined here; m = 2'-O-methyl; f = 2'-fluoro

Test system: hsHAO1 mRNA
Test: Dose-response of hsHAO1 targeting GalNAc-siRNAs in primary human hepatocytes, gymnotic free uptake, bDNA assay
Assay type: cell-based
Conditions: PHHs
Protocol: HepG2 cells were supplied by American Tissue Culture Collection (ATCC) (HB-8065, Lot #: 63176294) and cultured in ATCC-formulated Eagle's Minimum Essential Medium supplemented to contain 10% fetal calf serum (FCS). Primary human hepatocytes (PHHs) were sourced from Primacyt (Schwerin, Germany) (Lot #: CyHuf19009HEc). Cells are derived from a […] by explant technique. All cells used in this study were cultured at 37° C. in an atmosphere with 5% CO2 in a humidified incubator.
Dose response analysis in PHHs was done by direct incubation of cells in a gymnotic, free uptake setting starting with 1.5 μM highest final siRNA concentration, followed by 500 nM and from there on going serially down in twofold dilution steps.
Control wells were transfected into HepG2 cells or directly incubated with primary human hepatocytes at the highest test siRNA concentrations studied on the corresponding plate. All control siRNAs included in the different project phases next to mock treatment of cells are summarized and listed in Table 2. For each siRNA and control, at least four wells were transfected/directly incubated in parallel, and individual data points were collected from each well.
After 24 h of incubation with siRNA post-transfection, media was removed and HepG2 cells were lysed in Lysis Mixture (1 volume of lysis buffer plus 2 volumes of nuclease-free water) and then incubated at 53° C. for at least 45 minutes. In the case of PHHs, plating media was removed 5 h post treatment of cells followed by addition of 50 μl of complete maintenance medium per well. Media was exchanged in that way every 24 h up to a total incubation period of 72 h. At either 4 h or 72 h time point, cell culture supernatant was removed followed by addition of 200 μl of Lysis Mixture supplemented with 1:1000 v/v of Proteinase K.
The branched DNA (bDNA) assay was performed according to manufacturer's instructions. Luminescence was read using a 1420 Luminescence Counter (WALLAC VICTOR Light, Perkin Elmer, Rodgau-JMgesheim, Germany) following 30 minutes incubation in the presence of substrate in the dark. For each well, the on-target mRNA levels were normalized to the hsGAPDH mRNA levels. The activity of any siRNA was expressed as percent on-target mRNA concentration (normalized to hsGAPDH mRNA) in treated cells, relative to the mean on-target mRNA concentration (normalized to hsGAPDH mRNA) across control wells.
Following the identification of a suitable batch (CyHuf19009) of primary human hepatocytes (PHHs), a gymnotic, free uptake analysis was performed of hsHAO1 targeting GalNAc-siRNAs, listed in Table 1. The highest tested final siRNA concentration was 1.5 μM, followed by 500 nM, going down in eight two-fold serial dilution steps to the lowest final siRNA concentration of 1.95 nM. The experiments ended at 4 h and 72 h post direct incubation of PHH cells.

| Substance | Max. Inhib. (4 h incubation) | IC20 (72 h incubation) | Max. Inhib. (72 h incubation) | IC50 (72 h incubation) |
| --- | --- | --- | --- | --- |
| ETX004: hsHAO1 GalNAc-siRNA, 5′-GalNAc T2b alternating; sense X91412, antisense X91398; linker + ligand as FIG. 21 (sense {ET-GalNAc-T2CO}-{NH2C12}-fGmAfCmUfUmUfCmAfUmCfCmUfGmGfAmAfAmUfA*mU*fA; antisense mU*fA*mUfAmUfUmUfCmCfAmGfGmAfUmGfAmAfAmGfUmC*fC*mA) | −2.3% | 0.0028 µM | 35.5% | – |
| ETX002: hsHAO1 GalNAc-siRNA, 5′-GalNAc T2b inverted abasic; sense X91409, antisense X38483; linker + ligand as FIG. 21 (sense GACUUUCAUCCUGGAAAUAUA; antisense UAUAUUUCCAGGAUGAAAGUCCA; 5'-GalNAc, inverted abasic, 2'-F/OMe, PS; misc_feature 1..21 modified siRNA; misc_feature 1..23 modified siRNA) | 7.2% | 0.0239 µM | 44.3% | – |
| ECX008: hsHAO1 GalNAc-siRNA, 3′-GalNAc T2a alternating, same sequences as ETX008, lower purity (sense fG*mA*fCmUfUmUfCmAfUmCfCmUfGmGfAmAfAmUfAmUfA-{NHC6}-{ET-GalNAc-T2CO}; antisense mU*fA*mUfAmUfUmUfCmCfAmGfGmAfUmGfAmAfAmGfUmC*fC*mA; further chemistry not given here) | 2.0% | 0.0049 µM | 58.1% | 0.26 µM |
